In patent US12350782B2, “Method for producing stable-phase crystals using physical grinding” (University-Industry Cooperation Group of Kyung Hee …, priority 2021, dated 2025):
Like-named read-outs stand apart in the source and are kept apart here.

Details: for phase-transformed into gamma-glycine: after 24 hours

SMILES: NCC(=O)O [alpha-glycine, glycine]
- phase-transformed into gamma-glycine (100 g glass beads 1.7 to 2.0 mm, 300 g group 1, 500 rpm): 100%
- gamma-glycine (stable phase crystal) obtained (glass beads 1.7 to 2.0 mm, about 100 to 200 g, 300 rpm, stirred/ground 24-48 hours, groups 1 to 6): 100%
- time after which supersaturation of stable phase crystals (gamma-glycine) increased (magnetic bar in propeller stirring device, 300 rpm): about 1,500 minutes
- stable phase crystals obtained (magnetic bar stirred/ground at 300 rpm for about 65 hours or more (6,800 minutes)): 100%
- stable phase crystal (gamma-glycine) precipitation rate (simple propeller stirrer, no physical grinding, 300 g, 300 rpm, about 15 days, groups 1 to 6 of Table 1): 0%
- phase transformation from alpha-glycine to gamma-glycine (zirconia beads 5.0 to 7.0 mm, 100 rpm, 24 hours plus further 48 hours stirring): 100%
- phase-transformed into gamma-glycine (zirconia beads 5.0 to 7.0 mm, 300 g group 1, 100 rpm): 0%
